# In patent EP0029617A1, “Use of tertiary heterocyclic amines as synergists in pesticides; derivatives of cycloamines” (priority 1979, dated 1981):
# Like-named read-outs stand apart in the source and are kept apart here.
# Columns and labels:
# Drosophila melanogaster = assay: whole plant or invertebrate; type: in vivo; settings: for Wirksamkeit in % Substanz +Dimeti-lan: 1 ml 0,05%ige amine solution + 1 ml 0,0001%ige Dimetilan solution; for Wirksamkeit in % Substanz +Dimethoat: 1 ml 0,05%ige amine solution + 1 ml 0,005 %ige Dimethoat solution (Dimethoat : amine 1 : 10); for Faktor der Wirkungssteigerung bei Dime-methoat / Faktor der Wirkungssteigerung bei Dimi-tilan: calculated after subtracting the amine's own effect; for Faktor der Wirkungssteigerung bei Dimi-tilan: amine 0,05 % + Dimetilan 0,0001 %
# Description: Die insektiziden Wirkungen von tertiären heterocyclischen Aminen und die synergistischen Eigenschaften mit dem Phosphorsäureester Dimethoat und dem Carbamat Dimetilan, getestet an Drosophila melanogaster.
# Die Versuche wurden in Petrischalen von 10 cm Durchmesser ausgeführt. Es wurden zunächst die gerade noch wirksamen Konzentrationen von Dimethoat und Dimetilan bestimmt. Für Dimethoat wurde 0,005 % und für Dimetilan 0,0001 % als günstige Versuchskonzentration ermittelt. Die Aminkomponente wurde mit 1 ml 0,05%iger Lösung + 1 ml Aceton auf insektizide Wirkung getestet. Zur Bestimmung des Synergismus wurde 1 ml 0,05%ige Aminlösung + 1 ml 0,005.%ige Dimethoatlösung, bzw. + 1 ml 0,0001%ige Dimetilanlösung pro Petrischale eingesetzt. Alle Verdünnungen wurden mit Aceton als Lösungsmittel hergestellt.
# In den Petrischalen wurden die Lösungen am Boden gut verteilt und 30 min lang antrocknen lassen. In jede Petrischale wurden 20 mit Kohlendioxid betäubte Drosophila eingezählt. Alle 5 min, insgesamt 12 mal, wurde die Anzahl der toten Drosophila ausgezählt und notiert. Die Zahlen wurden aufsummiert und im Verhältnis zur möglichen Zahl an toten Drosophila in % angegeben, wobei der Tot aller Drosophila innerhalb der ersten 5 min 100 % Wirkung entspricht. Jeder Versuch wurde mit 3 Wiederholungen durchgeführt. In Tabelle 1 sind die Mittelwerte der Ergebnisse zusammengestellt.
# Zur Ermittlung des synergistischen Faktors wurden die Einzelwerte pro Zeiteinheit durch die für Dimethoat, bzw. Dimetilan für die jeweilige Zeiteinheit gefundenen Werte dividiert. Die Werte für jede Zeiteinheit wurden summiert und durch die Anzahl der Zeiteinheiten dividiert. Die Versuche wurden bei sonst stets gleichbleibenden Bedingungen bei Temperaturen von 20 - 22°C ausgeführt. Die Kontrollversuche zeigten bei Versuchsabschluß stets 0 % Mortalität. Hat die Substanz selbst eine insektizide Wirkung, so wurden die Wirkungsfaktoren für Dimethoat und Dimetilan nach Abzug des Substanzwertes berechnet und in der Tabelle aufgeführt.
# Im Beispiel 1 war das Verhältnis von Insektizid und erfindungsgemäßem Amin 1 : 10 in den Gemischen mit Dimethoat. In der Tabelle 2 sind Verhältnisse von 1 : 1, 1 : 2 und 1 : 0,2 bei Versuchen mit Dimethoat aufgeführt, dabei wurde das Dimethoat immer in einer Konzentation von 0,005 % eingesetzt. Die Tabelle zeigt, daß auch bei diesen Verhältnissen noch eine gute synergistische Wirkung vorhanden ist, und es keineswegs einer großen überdosierung des Amins bedarf.
# [1] = system: Kornkäfer (sitophilus granarius L); assay: whole plant or invertebrate; type: in vivo; settings: for mortality at 1000 µg/mL: read-out: Wirksamkeit in % Substanz allein; for Synergistischer Faktor bei Ripcord: amine 1 mg/ml + Ripcord 0,01 mg/ml; for Synergistischer Faktor bei Talcord: amine 1 mg/ml + Talcord 0,01 mg/ml; for Wirksamkeit in % Substanz +Ripcord: amine 1 mg/ml mixed 1 : 1 with Ripcord 0,01 mg/ml; for Wirksamkeit in % Substanz +Talcord: amine 1 mg/ml mixed 1 : 1 with Talcord 0,01 mg/ml; for % Wirkung Substanz +Ripcord / % Wirkung Substanz +Talcord: 180 min
# Summary of the method: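 Acetone solutions (2 ml) were dried as films in 15 cm Petri dishes and 25 grain weevils added per dish, with a filter inserted after 1 h. Dead beetles were counted at 3 h at 19–21 °C, and % mortality and the synergistic factor were derived.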
# [2] = Drosophila melanogaster, amine 0,005 %, read-out: Sub-stanz allein
# [3] = amine 0,005 % + Dimethoat 0,005 %, Dimethoat : Amin 1 : 1
# [4] = amine 0,005 %, Dimethoat : Amin 1 : 1
# [5] = Sitophilus granarius, amine 1 mg/ml in Aceton mixed 1 : 1 with Aceton, 2 ml per dish, 25 weevils, dead counted after 3 h
# [6] = Drosophila melanogaster, 1 ml 0,05%ige amine solution + 1 ml Aceton per dish, 20 flies, dead counted every 5 min, 12 times, mean values, read-out: Wirksamkeit in % Substanz allein
# [7] = amine 0,05 % + Dimethoat 0,005 %
# [8] = Pyrethroid : Amin 1 : 5, amine 0,05 mg/ml
# [9] = Pyrethroid : Amin 1 : 10, amine 0,1 mg/ml
Compound,mortality at 0.005 % (Drosophila melanogaster; [2]) [%],Substanz + Dime-thoat (Drosophila melanogaster; [3]),Faktor der Wirkungs-steigerung (Drosophila melanogaster; [4]),"mortality at 1000 µg/mL [1, 5] [%]",Synergistischer Faktor bei Ripcord [1],Synergistischer Faktor bei Talcord [1],Wirksamkeit in % Substanz +Ripcord ([1]; 3 h),Wirksamkeit in % Substanz +Talcord ([1]; 3 h),Wirksamkeit in % Substanz +Dimeti-lan (Drosophila melanogaster),Wirksamkeit in % Substanz +Dimethoat (Drosophila melanogaster),mortality at 0.05 % (Drosophila melanogaster; [6]) [%],Faktor der Wirkungssteigerung bei Dime-methoat (Drosophila melanogaster; [7]),Faktor der Wirkungssteigerung bei Dimi-tilan (Drosophila melanogaster),other results
CC(C)=CCCC(C)CCN1CCCCC1 (stereo not shown) [N-Citronellyl-piperidin],0,"32,9%","3,83",1.2,"2,46","5,53","78,8%","54,8%",–,–,–,–,–,"mortality at 0.001 % (Drosophila melanogaster; Drosophila melanogaster, amine 0,001 %, read-out: Sub-stanz allein): 0%; Substanz + Dime-thoat (Drosophila melanogaster; amine 0,001 % + Dimethoat 0,005 %, Dimethoat : Amin 1 : 0,2): 30,4%; Faktor der Wirkungs-steigerung (Drosophila melanogaster; amine 0,001 %, Dimethoat : Amin 1 : 0,2): 3,53"
CCCCCCCCCCN1CCCCCC1 [N-Decyl-hexamethylenimin],–,–,–,69.2,"1,35",–,"93,2%","62,8%","68,8%","65,0%",49.2,"1,84","7,84",–
CCOC(=O)CC(C(=O)OCC)N1CCCCC1 (stereo not shown) [N-Piperidino-bernstein-säure-di-ethylester],–,–,–,–,"3,08","2,47","97,2%","24,0%","2,3%","38,8%",–,"4,51",–,"Wirksamkeit in % Substanz allein (Drosophila melanogaster; 1 ml 0,05%ige amine solution + 1 ml Aceton per dish, 20 flies, dead counted every 5 min, 12 times, mean values): 0%; Wirksamkeit in % Substanz allein ([1]; amine 1 mg/ml in Aceton mixed 1 : 1 with Aceton, 2 ml per dish, 25 weevils, dead counted after 3 h): 0%"
c1cc2c(cc1CN1CCCCC1)OCO2 [N-Piperonyl-piperidin],0,"26,3%","3,06",0,–,–,"90,8%","64,0%","52,1%","65,0%",51.7,"1,55",–,"mortality at 0.05 % (Drosophila melanogaster; Drosophila melanogaster, amine 0,05 %, read-out: Sub-stanz allein): 28.8%; Substanz + Dime-thoat (Drosophila melanogaster; amine 0,05 % + Dimethoat 0,005 %, Dimethoat : Amin 1 : 10): 60,0%; Faktor der Wirkungs-steigerung (Drosophila melanogaster; amine 0,05 %, Dimethoat : Amin 1 : 10): 3,63; % Wirkung Substanz +Ripcord [1, 8]: 84,0%; % Wirkung Substanz +Talcord [1, 8]: 54,8%; % Wirkung Substanz +Ripcord [1, 9]: 74,8%; % Wirkung Substanz +Talcord [1, 9]: 24,0%; mortality at 100 µg/mL ([1]; Sitophilus granarius, 3 h, amine 0,1 mg/ml (as for Pyrethroid : Amin 1 : 10), read-out: % Wirkung Substanz allein): 0%; mortality at 50 µg/mL ([1]; Sitophilus granarius, 3 h, amine 0,05 mg/ml (as for Pyrethroid : Amin 1 : 5), read-out: % Wirkung Substanz allein): 0%"
c1cc2c(cc1CN1CCCC1)OCO2 [N-Piperonyl-pyrrolidin],–,–,–,41.2,"1,87","4,29","100,0%","82,8%","58,3%","60,0%",28.8,"3,63","11,80",–
